According to patent US6274715A, “Tricyclic erythromycin derivatives” (priority 1997, dated 2001):
Converted amounts (≈) assume the structure as drawn.

Assays:
Type in all cases: cell-based
[1] = tested on: MYCOBACTERIUM SMEGMATIS ATCC 114; assay: In vitro antibacterial activity, MIC, BHI agar dilution; settings: M. smegmatis ATCC 114, unit assumed
[2] = tested on: STAPHYLOCOCCUS AUREUS NCTC10649M; assay: as above; settings: S. aureus NCTC10649M, unit assumed
[3] = tested on: STREPTOCOCCUS PYOGENES 930; assay: as above; settings: S. pyogenes 930, unit assumed
[4] = tested on: PSEUDOMONAS AERUGINOSA DPHD-5263; assay: as above; settings: P. aeruginosa DPHD-5263, unit assumed
[5] = tested on: STAPHYLOCOCCUS AUREUS CMX 553; assay: as above; settings: S. aureus CMX 553, unit assumed
ESCHERICHIA COLI KNK 437 = settings: E. coli KNK 437; BHI agar; unit assumed
[6] = tested on: STAPHYLOCOCCUS AUREUS ATCC 6538P; assay: In vitro antibacterial activity, MIC, BHI agar dilution; settings: S. aureus ATCC 6538P, 35-37° C., 20 to 24 hours, unit assumed
[7] = tested on: STAPHYLOCOCCUS AUREUS 1775; assay: as above; settings: S. aureus 1775, unit assumed
[8] = tested on: ENTEROBACTER AEROGENES ATCC 13048; assay: as above; settings: E. aerogenes ATCC 13048, unit assumed
[9] = tested on: STAPHYLOCOCCUS AUREUS A5177; assay: as above; settings: S. aureus A5177, unit assumed
[10] = tested on: PSEUDOMONAS AERUGINOSA 5007; assay: as above; settings: P. aeruginosa 5007, unit assumed
[11] = tested on: STAPHYLOCOCCUS AUREUS A-5278; assay: as above; settings: S. aureus A-5278, unit assumed
[12] = tested on: PSEUDOMONAS AERUGINOSA K799/61; assay: as above; settings: P. aeruginosa K799/61, unit assumed
ESCHERICHIA COLI DC-2 = assay: as above; settings: E. coli DC-2, unit assumed
[13] = tested on: KLEBSIELLA PNEUMONIAE ATCC 8045; assay: as above; settings: K. pneumoniae ATCC 8045, unit assumed
ESCHERICHIA COLI H560 = assay: as above; settings: E. coli H560, unit assumed
[14] = tested on: STREPTOCOCCUS BOVIS A-5169; assay: as above; settings: S. bovis A-5169, unit assumed
[15] = tested on: PSEUDOMONAS AERUGINOSA K799/WT; assay: as above; settings: P. aeruginosa K799/WT, unit assumed
[16] = tested on: STAPHYLOCOCCUS EPIDERMIDIS 3519; settings: S. epidermidis 3519; BHI agar; unit assumed
[17] = tested on: STAPHYLOCOCCUS AUREUS CMX 642A; assay: In vitro antibacterial activity, MIC, BHI agar dilution; settings: S. aureus CMX 642A, unit assumed
[18] = tested on: STREPTOCOCCUS PYOGENES EES61; assay: as above; settings: S. pyogenes EES61, unit assumed
PSEUDOMONAS CEPACIA 296I = assay: as above; settings: P. cepacia 296I, unit assumed
[19] = tested on: PROVIDENCIA STUARTII CMX 640; settings: P. stuartii CMX 640; BHI agar; unit assumed
M[…] ATCC 9341 = assay: In vitro antibacterial activity, MIC, BHI agar dilution; settings: M. luteus ATCC 9341, unit assumed
Method: (§1) Representative compounds of the present invention were assayed in vitro for antibacterial activity as follows: Twelve petri dishes containing successive aqueous dilutions of the test compound mixed with 10 mL of sterilized Brain Heart Infusion (BHI) agar (Difco 0418-01-5) were prepared. Each plate was inoculated with 1:100 (or 1:10 for slow-growing strains, such as Micrococcus and Streptococcus) dilutions of up to 32 different microorganisms, using a Steers replicator block. The inoculated plates were incubated at 35-37° C. for 20 to 24 hours. In addition, a control plate, using BHI agar containing no test compound, was prepared and incubated at the beginning and end of each test.
(§2) An additional plate containing a compound having known susceptibility patterns for the organisms being tested and belonging to the same antibiotic class as the test compound was also prepared and incubated as a further control, as well as to provide test-to-test comparability. Erythromycin A was used for this purpose.
(§3) After incubation, each plate was visually inspected. The minimum inhibitory concentration (MIC) was defmed as the lowest concentration of drug yielding no growth, a slight haze, or sparsely isolated colonies on the inoculum spot as compared to the growth control.

EN[…] ATCC 8043 = assay: as above; settings: E. faecium ATCC 8043, unit assumed
Method: as §1, §2, §3

M[…] ATCC 4698 = assay: as above; settings: M. luteus ATCC 4698, unit assumed
Method: as §1, §2, §3

STR[…] 508 = assay: as above; settings: S. agalactiae CMX 508, unit assumed
Method: as §1, §2, §3

ESCHERICHIA COLI JUHL = settings: E. coli JUHL; BHI agar; unit assumed
CANDIDA ALBICANS CCH 442 = assay: In vitro antibacterial activity, MIC, BHI agar dilution; settings: C. albicans CCH 442, unit assumed
[20] = tested on: PSEUDOMONAS AERUGINOSA DPHD-2862; assay: as above; settings: P. aeruginosa DPHD-2862, unit assumed
[21] = tested on: PSEUDOMONAS AERUGINOSA BMH10; assay: as above; settings: P. aeruginosa BMH10, unit assumed
[22] = tested on: STREPTOCOCCUS PYOGENES PIU 2548; assay: as above; settings: S. pyogenes PIU 2548, unit assumed

`CC[C@H]1OC(=O)[C@H](C)C(=O)[C@H](C)[C@@H](O[C@@H]2O[C@H](C)C[C@H](N(C)C)[C@H]2O)[C@](C)(OC)C[C@@H](C)C2=N[C@H](Cc3ccccc3)CN3C(=O)O[C@@]1(C)[C@H]3[C@H]2C` [Example 3] gave an MIC [1] of over 100 µg/mL, an MIC [2] of 0.39 µg/mL (≈ 0.536 µM) and an MIC [3] of 100 µg/mL (≈ 137 µM). It also gave an MIC [4] of over 100 µg/mL, an MIC [5] of 0.39 µg/mL (≈ 0.536 µM) and an MIC (ESCHERICHIA COLI KNK 437) of over 100 µg/mL. For the same compound, the MIC [6] was 0.39 µg/mL (≈ 0.536 µM), the MIC [7] was over 100 µg/mL and the MIC [8] was over 100 µg/mL. For the same compound, the MIC [9] was 0.39 µg/mL (≈ 0.536 µM), the MIC [10] was over 100 µg/mL and the MIC [11] was over 100 µg/mL. For the same compound, the MIC [12] was 3.1 µg/mL (≈ 4.26 µM), the MIC (ESCHERICHIA COLI DC-2) was over 100 µg/mL and the MIC [13] was over 100 µg/mL. The MIC (ESCHERICHIA COLI H560) was over 100 µg/mL, the MIC [14] was 0.02 µg/mL (≈ 0.0275 µM) and the MIC [15] was over 100 µg/mL. For the same compound, the MIC [16] was 0.39 µg/mL (≈ 0.536 µM), the MIC [17] was 0.39 µg/mL (≈ 0.536 µM) and the MIC [18] was 0.01 µg/mL (≈ 0.0137 µM). For the same compound, the MIC (PSEUDOMONAS CEPACIA 296I) was over 100 µg/mL, the MIC [19] was over 100 µg/mL and the MIC (M[…] ATCC 9341) was 0.1 µg/mL (≈ 0.137 µM). It also gave an MIC (EN[…] ATCC 8043) of 0.05 µg/mL (≈ 0.0687 µM), an MIC (M[…] ATCC 4698) of 0.39 µg/mL (≈ 0.536 µM) and an MIC (STR[…] 508) of 0.01 µg/mL (≈ 0.0137 µM). For the same compound, the MIC (ESCHERICHIA COLI JUHL) was over 100 µg/mL, the MIC (CANDIDA ALBICANS CCH 442) was over 100 µg/mL and the MIC [20] was over 100 µg/mL. The MIC [21] was over 100 µg/mL.

Work on `CC[C@H]1OC(=O)[C@H](C)C(=O)[C@H](C)[C@@H](O[C@@H]2O[C@H](C)C[C@H](N(C)C)[C@H]2O)[C@](C)(OC)C[C@@H](C)C2=NC3CN(C(C)c4ccccc4)CC3N3C(=O)O[C@@]1(C)[C@H]3[C@H]2C` (some centres unmarked) [Example 113] yielded an MIC [2] of 0.78 µg/mL (≈ 0.996 µM), an MIC [3] of over 100 µg/mL and an MIC [4] of over 100 µg/mL. The MIC [5] was 0.78 µg/mL (≈ 0.996 µM), the MIC (ESCHERICHIA COLI KNK 437) was over 100 µg/mL and the MIC [6] was 0.78 µg/mL (≈ 0.996 µM). It also gave an MIC [7] of over 100 µg/mL, an MIC [22] of 0.39 µg/mL (≈ 0.498 µM) and an MIC [8] of over 100 µg/mL. It also gave an MIC [9] of 0.39 µg/mL (≈ 0.498 µM), an MIC [10] of over 100 µg/mL and an MIC [11] of over 100 µg/mL. For the same compound, the MIC [12] was 3.1 µg/mL (≈ 3.96 µM), the MIC (ESCHERICHIA COLI DC-2) was over 100 µg/mL and the MIC [13] was over 100 µg/mL. It also gave an MIC (ESCHERICHIA COLI H560) of 50 µg/mL (≈ 63.9 µM), an MIC [14] of 0.01 µg/mL (≈ 0.0128 µM) and an MIC [15] of over 100 µg/mL. The MIC [16] was 1.56 µg/mL (≈ 1.99 µM), the MIC [17] was 0.78 µg/mL (≈ 0.996 µM) and the MIC [18] was 0.05 µg/mL (≈ 0.0639 µM). It also gave an MIC (PSEUDOMONAS CEPACIA 296I) of over 100 µg/mL, an MIC [19] of over 100 µg/mL and an MIC (M[…] ATCC 9341) of 0.1 µg/mL (≈ 0.128 µM). For the same compound, the MIC (EN[…] ATCC 8043) was 0.2 µg/mL (≈ 0.255 µM), the MIC (M[…] ATCC 4698) was 0.78 µg/mL (≈ 0.996 µM) and the MIC (STR[…] 508) was 0.2 µg/mL (≈ 0.255 µM). The MIC (ESCHERICHIA COLI JUHL) was over 100 µg/mL, the MIC (CANDIDA ALBICANS CCH 442) was over 100 µg/mL and the MIC [20] was over 100 µg/mL. The MIC [21] was over 100 µg/mL.
